From ChEMBL document CHEMBL1201862, “PubChem BioAssay data set” (2004) come the findings set out here.

Test systems include SF-539; HCC 2998; UACC-62; SF-295; T47D; TK-10; MDA-N; SNB-78; UO-31; EKVX; OVCAR-4; HOP-62; BT-549; HL-60; DU-145; SK-MEL-5; XF498; A549; DLD-1; RPMI-8226.
Assay in all cases: DTP human tumour cell line panel, 48 h

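Cells were grown in 96-well plates and exposed to each compound for 48 hours at five concentrations; endpoints were interpolated linearly between bracketing concentrations, or set to the highest concentration if not reached. The concentration for 50% growth inhibition is given as GI50.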 The source made the active and inactive calls. No stated cut-off is given here; in the data, active = GI50 up to about 1.1 µM and inactive = higher.

In the case of `O=C(O)c1cc2c(s1)C(=O)c1sccc1C2=O`, the GI50 in the assay on SF-539 was 1.95 µM (inactive); in the assay on HCC 2998 it was 18.7 µM (inactive); in the assay on UACC-62 it was 2.08 µM (inactive); in the assay on SF-295, 2.26 µM (inactive); in the assay on T47D it was 4.97 µM (inactive); in the assay on TK-10, 20.1 µM (inactive). Moreover, the GI50 in the assay with MDA-N was 0.769 µM (active); in the assay on SNB-78, 0.264 µM (active); with UO-31 it was 5.98 µM (inactive); in the assay on EKVX, 15.7 µM (inactive); in the assay with OVCAR-4, 6.7 µM (inactive); with HOP-62, 6.11 µM (inactive). Further, the GI50 in the assay on BT-549 is 1.91 µM (inactive); in the assay on HL-60 it was 4.18 µM (inactive); with DU-145 it was 2.33 µM (inactive); in the assay with SK-MEL-5, 1.82 µM (inactive); with XF498 it was 20.9 µM (inactive); with A549, 4.25 µM (inactive). For the same compound, the GI50 in the assay on DLD-1 is 14.4 µM (inactive); in the assay on RPMI-8226, 12.7 µM (inactive).

For orientation: GI50 means the concentration that inhibits growth by half.
